{"source": "patent US20070059385A1", "about": "“Safe pharmaceutical composition for treating and preventing cancer and method of use” (priority 2005, published 2007)", "key": {"HL-60 cells": {"test_system": "HL-60 cells", "test": "Induction of differentiation (NBT reduction) of human leukemic cells", "type": "cell-based", "conditions": "Mu, GU, MAT, IND 50 ng/ml, higher NBT (%) means higher normal cells", "procedure": "HL-60 cells were established from a patient with acute myeloid leukemia. The cells were cultured in culture flasks with RPMI plus 10% FCS.\nDifferentiation of HL-60 cells was assessed by their abilities to produced superoxide as measured by reduction of NBT, by NSE staining and by morphology as detected on cytospin preparations stained with Diff-Quick stain Set, and by analysis of membrane-bound differentiation markers with two-color immunofluorescence. Briefly, cells were preincubated at 4° C. for 60 min in 10% human AB serum and then with FITC-conjugated mouse IgGI isotype control. Analysis of fluorescence was performed on a flow cytometer.\nHL-60 cells were culture in a two-layer soft agar system for 10 days without adding any growth factors as described previously, and colonies were counted using an inverted microscope. The analogues were added to the agar upper layer on day 0. For analysis of the reversibility of inhibition of proliferation, the cells were cultured in suspension culture with and without HHT or other drugs. After 60 hours, the culture flasks were gently jarred to loosen adherent cells, the cells were washed twice in cultured medium containing 10% FCS to remove the test drugs, and then the clonogenic assay was performed. NBT% indicated percentage of normal cells."}, "[1]": {"test": "Metabolism (organ and blood radioactivity) of [^3H]-HHT in P388 mice", "type": "in vivo", "conditions": "P388 mice, [^3H]-HHT 1 mg/kg", "procedure": "Animals: Adult DBA/2J male mice, 6 to 8 weeks old. All animals weighed approximately 25 g when used in experiments. Each member of which received identical dosed (i.p.) of HHT.\nTumor: P388 leukemic cells induced in mice by inoculation with L1210 or P388 leukemic cells ([…]).\nAfter P388 induced in mice 5 days, 1 mg/kg of [^3H]-HHT (100 μC/mg) was injected to mice. Volumes were 0.01 ml/g body weight. […] The key data of HHT in metabolism process are determined counts per minute (CPM) of [^3H]-HHT in organs. CPM is determined by liquid scintillation counting (LSC). The methods of LSC combined with radioactive of [^3H]-HHT can be determined using a tracer of HHT in organs. After killed animals, organs and blood were obtained from P388 mice. Organs were weighted. 10 mg of organs were digested. 10 ml of scintillation solution (which containing […]) were added to digested solution and determined at LSC. Other processes are similar to the standard method."}, "TA100": {"test_system": "TA100", "test": "Salmonella mutagenicity assay TA100", "procedure": "The method for detecting mutagenicity of HHT, with the Salmonella system that detects the reversion of the bacteria from His^− to His^+, is widely used.\nThe bacterial tester strains used for mutagenesis testing are TA97, TA98, TA100 and TA102. Mutagenesis testing method was done as described previously ^[77-88]. In brief, TA97, TA98, TA100 and TA102 were grown in agar gel culture. The petri plats (100×15 mm style) contain 30 ml with 2% glucose. The agar mixture was agitated vigorously and immediately poured into plates of minimal agar. The cultures were incubated at 37° C. in a dark and 5% CO2 in air for 48 hours. After 48 hours the colonies in both test and controls are counted. The presence of a background lawn of bacteria on the histidine-poor soft agar plate was used as an indication that gross toxic effects were absent. Mutagenicity assays were carried out at least in triplicate.\nThe range of spontaneous mutation rates for the individual strains, which were considered to be acceptable, was TA97 (100-170), TA98 (20-40) and TA100 (80-150)."}, "Normal cells": {"test_system": "Normal cells", "test": "Apoptosis of normal cells", "type": "cell-based", "procedure": "Cells ([…] were incubated in 10 ml IMDM plus […] heat-inactivated fetal calf serum. Samples were incubated for 24 hours with various concentrations of drugs. Control samples received the same amount of media, without drug addition. After 24 hours of incubation the samples were pelleted and fixed in ethanol […] for 15 minutes at 4° C.; after three washes in PBS, the cells were treated with RNase I 0.5 mg/ml for 15 minutes at 37° C. The cells were harvested by centrifugation and resuspended in 50 μg/ml propidium iodide in PBS. Analysis (upon acquisition of 10,000-20,000 events) was performed on a FACscan flow cytometer with the FL2 detector in logarithmic mode, using Lysis II software (Becton Dickinson). Apoptotic cells were located in the hypodiploid region of the histogram, due to chromosome condensation and fragmentation.\nFor evaluation of apoptosis by flow cytometry, cells were fixed and permeabilized in 1% paraformaldehyde and ice-cold 70% ethanol. Digoxigenin-dUTP was incorporated at the 3′OH ends of the fragmented DNA in the presence of terminal deoxynucleotidyltranserase, and the cells were incubated with FITC-labeled anti-digoxigenin-dUTP and with propidium iodide. Green (apoptotic cells) and orange (total DNA) fluorescence were measured with a FACScan flow cytometer and analyzed with LYSIS II and CELLFIT programs. Data were analyzed by Student's t-test. P values were considered significant when <0.05. […]"}}}
{"smiles": "COC(=O)C[C@](O)(CCCC(C)(C)O)C(=O)O[C@@H]1C(OC)=C[C@]23CCCN2CCc2cc4c(cc2[C@H]13)OCO4", "note": "[HHT, Homoharringtonine]", "values": [{"measurement": "NBT (%)", "setting": "HL-60 cells", "value": "65 ± 7.0", "unit": "%"}, {"measurement": "CMP/mg organ, Bone", "setting": "[1]; 1 hour", "value": 500, "unit": "CMP/mg organ"}, {"measurement": "CMP/mg organ, Brain", "setting": "[1]; 1 hour", "value": 499, "unit": "CMP/mg organ"}, {"measurement": "CMP/mg organ, Contents of intestine", "setting": "[1]; 1 hour", "value": 3323, "unit": "CMP/mg organ"}, {"measurement": "CMP/mg organ, Contents of stomach", "setting": "[1]; 1 hour", "value": 6821, "unit": "CMP/mg organ"}, {"measurement": "CMP/mg organ, Heart", "setting": "[1]; 1 hour", "value": 1403, "unit": "CMP/mg organ"}, {"measurement": "CMP/mg organ, Intestine", "setting": "[1]; 1 hour", "value": 1638, "unit": "CMP/mg organ"}, {"measurement": "CMP/mg organ, Kidney", "setting": "[1]; 1 hour", "value": 6501, "unit": "CMP/mg organ"}, {"measurement": "CMP/mg organ, Liver", "setting": "[1]; 1 hour", "value": 4145, "unit": "CMP/mg organ"}, {"measurement": "CMP/mg organ, Lung", "setting": "[1]; 1 hour", "value": 2100, "unit": "CMP/mg organ"}, {"measurement": "CMP/mg organ, Spleen", "setting": "[1]; 1 hour", "value": 2828, "unit": "CMP/mg organ"}, {"measurement": "CMP/mg organ, Stomach", "setting": "[1]; 1 hour", "value": 1626, "unit": "CMP/mg organ"}, {"measurement": "CMP/mg organ, Bone", "setting": "[1]; 3 hours", "value": 560, "unit": "CMP/mg organ"}, {"measurement": "CMP/mg organ, Brain", "setting": "[1]; 3 hours", "value": 646, "unit": "CMP/mg organ"}, {"measurement": "CMP/mg organ, Contents of intestine", "setting": "[1]; 3 hours", "value": 7215, "unit": "CMP/mg organ"}, {"measurement": "CMP/mg organ, Contents of stomach", "setting": "[1]; 3 hours", "value": 84375, "unit": "CMP/mg organ"}, {"measurement": "CMP/mg organ, Heart", "setting": "[1]; 3 hours", "value": 1800, "unit": "CMP/mg organ"}, {"measurement": "CMP/mg organ, Intestine", "setting": "[1]; 3 hours", "value": 3288, "unit": "CMP/mg organ"}, {"measurement": "CMP/mg organ, Kidney", "setting": "[1]; 3 hours", "value": 3121, "unit": "CMP/mg organ"}, {"measurement": "CMP/mg organ, Liver", "setting": "[1]; 3 hours", "value": 6718, "unit": "CMP/mg organ"}, {"measurement": "CMP/mg organ, Lung", "setting": "[1]; 3 hours", "value": 2427, "unit": "CMP/mg organ"}, {"measurement": "CMP/mg organ, Spleen", "setting": "[1]; 3 hours", "value": 2426, "unit": "CMP/mg organ"}, {"measurement": "CMP/mg organ, Stomach", "setting": "[1]; 3 hours", "value": 2321, "unit": "CMP/mg organ"}, {"measurement": "CMP/mg organ, Bone", "setting": "[1]; 6 hours", "value": 505, "unit": "CMP/mg organ"}, {"measurement": "CMP/mg organ, Brain", "setting": "[1]; 6 hours", "value": 793, "unit": "CMP/mg organ"}, {"measurement": "CMP/mg organ, Contents of intestine", "setting": "[1]; 6 hours", "value": 6250, "unit": "CMP/mg organ"}, {"measurement": "CMP/mg organ, Contents of stomach", "setting": "[1]; 6 hours", "value": 100719, "unit": "CMP/mg organ"}, {"measurement": "CMP/mg organ, Heart", "setting": "[1]; 6 hours", "value": 1193, "unit": "CMP/mg organ"}, {"measurement": "CMP/mg organ, Intestine", "setting": "[1]; 6 hours", "value": 2475, "unit": "CMP/mg organ"}, {"measurement": "CMP/mg organ, Kidney", "setting": "[1]; 6 hours", "value": 3501, "unit": "CMP/mg organ"}, {"measurement": "CMP/mg organ, Liver", "setting": "[1]; 6 hours", "value": 4109, "unit": "CMP/mg organ"}, {"measurement": "CMP/mg organ, Lung", "setting": "[1]; 6 hours", "value": 1788, "unit": "CMP/mg organ"}, {"measurement": "CMP/mg organ, Spleen", "setting": "[1]; 6 hours", "value": 2198, "unit": "CMP/mg organ"}, {"measurement": "CMP/mg organ, Stomach", "setting": "[1]; 6 hours", "value": 3703, "unit": "CMP/mg organ"}, {"measurement": "CMP/mg organ, Bone", "setting": "[1]; 24 hours", "value": 480, "unit": "CMP/mg organ"}, {"measurement": "CMP/mg organ, Brain", "setting": "[1]; 24 hours", "value": 986, "unit": "CMP/mg organ"}, {"measurement": "CMP/mg organ, Contents of intestine", "setting": "[1]; 24 hours", "value": 5009, "unit": "CMP/mg organ"}, {"measurement": "CMP/mg organ, Contents of stomach", "setting": "[1]; 24 hours", "value": 117914, "unit": "CMP/mg organ"}, {"measurement": "CMP/mg organ, Heart", "setting": "[1]; 24 hours", "value": 893, "unit": "CMP/mg organ"}, {"measurement": "CMP/mg organ, Intestine", "setting": "[1]; 24 hours", "value": 1067, "unit": "CMP/mg organ"}, {"measurement": "CMP/mg organ, Kidney", "setting": "[1]; 24 hours", "value": 1065, "unit": "CMP/mg organ"}, {"measurement": "CMP/mg organ, Liver", "setting": "[1]; 24 hours", "value": 2175, "unit": "CMP/mg organ"}, {"measurement": "CMP/mg organ, Lung", "setting": "[1]; 24 hours", "value": 1312, "unit": "CMP/mg organ"}, {"measurement": "CMP/mg organ, Spleen", "setting": "[1]; 24 hours", "value": 2156, "unit": "CMP/mg organ"}, {"measurement": "CMP/mg organ, Stomach", "setting": "[1]; 24 hours", "value": 1823, "unit": "CMP/mg organ"}, {"measurement": "Number of His^+ revertants/plate", "setting": "TA100; TA100 +S, 0.1 μg/plate", "value": 158, "unit": "revertants/plate"}, {"measurement": "Number of His^+ revertants/plate", "setting": "TA100; TA100 +S, 1 μg/plate", "value": 152, "unit": "revertants/plate"}, {"measurement": "Number of His^+ revertants/plate", "setting": "TA100; TA100 +S, 10 μg/plate", "value": 165, "unit": "revertants/plate"}, {"measurement": "Number of His^+ revertants/plate", "setting": "TA100; TA100 +S, 100 μg/plate", "value": 160, "unit": "revertants/plate"}, {"measurement": "Number of His^+ revertants/plate", "setting": "TA100; TA100 −S, 0.1 μg/plate", "value": "148 ± 12", "unit": "revertants/plate"}, {"measurement": "Number of His^+ revertants/plate", "setting": "TA100; TA100 −S, 1 μg/plate", "value": "140 ± 13", "unit": "revertants/plate"}, {"measurement": "Number of His^+ revertants/plate", "setting": "TA100; TA100 −S, 10 μg/plate", "value": "162 ± 17", "unit": "revertants/plate"}, {"measurement": "Number of His^+ revertants/plate", "setting": "TA100; TA100 −S, 100 μg/plate", "value": "158 ± 15", "unit": "revertants/plate"}, {"measurement": "Apoptosis (%)", "setting": "Normal cells; HHT 10 ng/ml", "value": "16.5 ± 2.0", "unit": "%"}, {"measurement": "Apoptosis (%)", "setting": "Normal cells; HHT 50 ng/ml", "value": "18.5 ± 2.5", "unit": "%"}, {"measurement": "Apoptosis (%)", "setting": "Normal cells; HHT 100 ng/ml", "value": "22.0 ± 3.5", "unit": "%"}, {"measurement": "Apoptosis (%)", "setting": "Normal cells; HHT 500 ng/ml", "value": "29.5 ± 5.2", "unit": "%"}, {"measurement": "Apoptosis (%)", "setting": "Normal cells; Table 4, HHT (50 ng/ml) alone or in combination", "value": "18.5 ± 2.5", "unit": "%"}]}
